Earlier results, collected in patent US11389451B2, “Metolazone emulsion formulation” (ACADEMIC PHARMACEUTICALS, INC., priority 2017, dated 2022).

Settings: background statement

Q: With `Cc1ccccc1N1C(=O)c2cc(S(N)(=O)=O)c(Cl)cc2NC1C` (centres unmarked) [Metolazone] as the compound, how does the solubility in lipids read?
A: moderate to high

Q: And the solubility in water?
A: low
